# In patent US6969590B2, “Use of a polypeptide for treatment of pruritus in animals” (Zengen, Inc., priority 2001, dated 2005):
# Assays:
# cAMP = cAMP accumulation in N9 cells; assay type: cell-based, murine; conditions: resting cells and cells incubated with LPS+IFN-γ
# Description: cAMP accumulation in N9 cells was measured as previously described. Briefly, cells in six-well plates were co-incubated at 37° C. with (1) medium; (2) forskolin (100 μM); (3) LPS (10 ng/mL)+IFN-γ (1 U/mL); (4) α-MSH (1-13) or α-MSH (11-13) (1, 10, 50 μM); (5) LPS+IFN-γ and either α-MSN (1-13) or α-MSH (11-13) (10 μM). Reactions were stopped after 3 min by aspirating supernatants, immediately adding 1 mL ethanol at −20° C. and freezing. cAMP content in the ethanol-soluble fraction was measured using an enzyme immunoassay kit (Amersham).
# human neutrophils = assay: C. albicans killing by human neutrophils; assay type: cell-based; conditions: 2 hours at 37° C., vs. medium
# Description: Venous blood (20 ml) from healthy volunteers was anticoagulated with heparin. Neutrophils were isolated using dextran sedimentation and Ficoll-Hypaque (Sigma Chemical Co., St. Louis, Mi., USA) centrifugation. Erythrocytes were lysed via hypotonic shock. Neutrophils represented at least 97% of the cell suspension. Cell viability, estimated by trypan blue exclusion, was >98%. Neutrophils were suspended to a final concentration in HBSS. C. albicans (1×10^6) were opsonized with human AB serum in a shaking water bath for 30 minutes at 37° C. Organisms were then incubated with neutrophils in medium or in medium with α-MSH (1-13) or α-MSH (11-13) in concentrations of 10^−15 M to 10^−4 M in a shaking water bath for 2 hours at 37° C. After incubation, the culture tubes were placed on ice to stop growth and extracellular organisms were washed twice with centrifugation at 1000×g at 4° C. A 2.5% sodium desoxycholoate solution was added to obtain a suspension of 10^6 cells/ml. Two 1/100 serial dilutions in HBSS were made to obtain a final suspension of 100 cells/ml. Aliquots of 1 ml were dispensed on blood agar plates and incubated for 48 hours at 37° C. Colony forming units (CFUs) were counted at the end of the incubation period. Experiments were run in triplicate and repeated using blood from 5 different donors.
sequence,measurement,setting,value
SYSMEHFRWGKPV [α-MSH (1-13)],cAMP accumulation,cAMP,increased cAMP accumlation
same,killing of C. albicans by human neutrophils,human neutrophils,enhanced the killing
